Read-outs that look alike come from different tables or passages of the source.
Tests used:
[1] = biological target: T1, GST-tagged full-length FAK enzyme (PTK2) (Homo sapiens, UniProt Q05397); test: Biochemical Omnia Assay (FAK)
T1 construct: GST-tagged full-length FAK enzyme (PTK2, Invitrogen PV4085); GST; purchased Invitrogen PV4085
Protocol: Biochemical Omnia Assay Protocol
The Omnia Assay (Invitrogen) has been optimized for GST-tagged full-length FAK enzyme (PTK2, Invitrogen PV4085).
All compound concentrations were assayed in duplicate. Initial compound dilutions were prepared at 100× concentration in 100% DMSO from a 10 mM stock solution. Compounds were further diluted 1:25 in assay buffer resulting in a 4× concentrated solution.
In running the assay, 5 μL of the above 4× concentrated compound solution (or 4% DMSO for positive controls) was added to the assay plate followed by 5 μL of a solution containing peptide (40 μM) and ATP (200 μM) in assay buffer. The reaction was initiated by the addition of 10 μL of FAK (50 nM) in assay buffer, or assay buffer alone for negative controls. The increase in fluorescence due to peptide phosphorylation was monitored continuously as a function of time using a Spectramax M5 plate reader (Molecular Devices) equipped with SoftMax Pro 5.2 software.
IC50 values were determined from the slopes of the linear progress curves by non-linear curve-fitting using GraphPad Prism 5 (GraphPad Software, Inc.).

[2] = biological target: T2, FAK (Homo sapiens, UniProt Q05397); test: Cell-based capture ELISA for inhibition of FAK autophosphorylation [pY397] in U87MG cells
T2 construct: endogenous in cells; host or cells: U87MG glioblastoma cells (ATCC HTB-14)
T2 sequence (Q05397 whole entry): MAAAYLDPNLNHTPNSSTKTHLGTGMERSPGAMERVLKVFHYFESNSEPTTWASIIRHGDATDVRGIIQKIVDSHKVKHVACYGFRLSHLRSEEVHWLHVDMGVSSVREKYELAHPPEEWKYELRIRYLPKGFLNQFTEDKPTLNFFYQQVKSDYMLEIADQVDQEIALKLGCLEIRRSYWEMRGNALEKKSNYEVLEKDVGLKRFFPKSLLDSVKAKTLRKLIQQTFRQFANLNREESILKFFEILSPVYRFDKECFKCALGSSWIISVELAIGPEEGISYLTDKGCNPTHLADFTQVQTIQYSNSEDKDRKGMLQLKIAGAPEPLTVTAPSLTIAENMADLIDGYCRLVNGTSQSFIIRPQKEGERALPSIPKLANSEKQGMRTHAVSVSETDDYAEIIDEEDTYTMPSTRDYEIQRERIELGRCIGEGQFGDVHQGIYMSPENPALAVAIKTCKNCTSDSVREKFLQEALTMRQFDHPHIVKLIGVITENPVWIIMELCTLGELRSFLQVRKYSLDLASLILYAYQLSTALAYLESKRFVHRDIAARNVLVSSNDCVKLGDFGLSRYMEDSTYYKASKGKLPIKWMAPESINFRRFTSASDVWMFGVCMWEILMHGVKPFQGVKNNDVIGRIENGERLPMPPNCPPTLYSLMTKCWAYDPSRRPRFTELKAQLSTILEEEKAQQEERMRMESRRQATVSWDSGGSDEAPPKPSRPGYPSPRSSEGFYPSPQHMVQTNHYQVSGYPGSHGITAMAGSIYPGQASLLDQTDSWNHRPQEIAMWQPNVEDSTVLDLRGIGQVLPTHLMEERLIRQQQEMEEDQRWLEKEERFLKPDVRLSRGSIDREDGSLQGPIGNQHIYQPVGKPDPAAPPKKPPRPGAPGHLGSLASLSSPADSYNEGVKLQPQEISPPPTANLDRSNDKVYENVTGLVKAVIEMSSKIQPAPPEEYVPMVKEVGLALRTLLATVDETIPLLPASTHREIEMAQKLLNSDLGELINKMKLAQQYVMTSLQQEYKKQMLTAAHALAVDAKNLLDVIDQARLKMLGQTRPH
Protocol: Cell-Based Assays for Inhibition of FAK Autophosphorylation: MiaPaCa2 and U87MG
The ability of compounds to inhibit FAK autophosphorylation was determined in a cell-based capture ELISA assay using U87MG glioblastoma cells (ATCC, Cat # HTB-14) and the FAK [pY397]ELISA kit from Invitrogen (KHO0441). The assay determines the ability of compounds to block endogenous autophosphorylation of FAK stimulated by fibronectin. Cells plated on fibronectin coated 96-well plate were incubated with compounds at various concentrations in the complete growth medium for 2 h. Cell lysates were then prepared and FAK protein was captured onto a FAK antibody-coated 96-well ELISA plate. The phosphotyrosine content of FAK protein was then monitored by quantitation of degree of binding of an antibody that recognizes only the phosphorylated FAK at Y397 within the captured protein.
Reagents Provided in Biosource FAK [pY397]
Cultures of U87MG cells growing in MEM (Earles) containing non-essential amino acids, sodium pyruvate (1 mM), […] (1%) and 10% fetal bovine serum were detached by trypsin-EDTA and suspended in cell growth medium. Cells were then plated onto fibronectin (600 ng/well)-coated 96-well flat bottom plates at 1.7×10^4 cells per well in 60 uL cell growth medium and incubated overnight at 37° C. in a CO2 incubator.
Compound dilutions were prepared from 10 mM DMSO stocks by dilution in cell growth medium, the final concentration of DMSO in the assay being 0.6%. […] The cells were then incubated with compounds at 37° C. for 2 h. The medium was removed by aspiration and cells were lysed by addition of 20 uL of ice-cold cell lysis buffer per well. The plates were kept on ice for 20 min and 50 uL of standard diluent was added to each well. 50 uL of cell lysate from each well was transferred to respective wells in an assay plate and 50 uL of detection antibody was added to all wells except H1-H6 which were no antibody control wells. Capture assay plates were incubated overnight in a cold room.
Following incubation of the cell lysates and detection antibodies in the ELISA plate, the wells were washed 4 times with 120 uL of wash buffer (1×), then 100 uL of diluted HRP conjugated antibody (1:100 dil in diluent) was added to each well, and the plate was incubated at RT for 30 min. The wells were then washed for 4 times with 120 uL of wash buffer (1×) and 100 uL of chromogen was added to each well and incubated in the dark at RT for 5-10 min. 100 uL of stop solution was added to each well and the absorbance measured at 450 nm, 0.1 s.
Comparison of the assay signals obtained in the presence of compound with those of positive and negative controls (cells with no compound and no detection antibody being added), allows degree of inhibition of phospho-FAK [Y397] to be determined over a range of compound concentrations. […] The assay as described above was modified to determine the effect of inclusion of 50% (v/v) mouse or human plasma. In this assay, the compound plate was prepared as 2× concentration in 100 uL of 100% mouse or human plasma, and 60 uL of this was added to 60 uL of culture medium and incubated at 37° C. incubator for 2 h. The rest of the assay was carried out as described above.

[3] = 50% (v/v) human plasma, mean IC50, read-out: FAK Activity Mechanistic (U87MG) HP
[4] = no plasma present, mean IC50, read-out: FAK Activity Mechanistic (U87MG) NP
[5] = 50% (v/v) mouse plasma, mean IC50, read-out: FAK Activity Mechanistic (U87MG) MP
[6] = mean IC50, [ATP] = 50uM, read-out: FAK Activity Biochemical OMNIA, [ATP] = 50uM

T1 sequence (Q05397 whole entry): as above

SMILES | IC50 [1] [nM] | IC50 [2, 3] [nM] | IC50 [2, 4] [nM] | IC50 [2, 5] [nM] | IC50 [1, 6] [nM]
CCNC(=O)c1nc2ccc1Nc1nc(ncc1C(F)(F)F)Nc1ccc(cc1OC)CP(=O)(OCC)OCC1(COC1)Cn1cc-2cn1 (racemic) [Example 45] | < 400 | < 400 | < 400 |  | 
CCOP1(=O)Cc2ccc(c(OC)c2)Nc2ncc(C(F)(F)F)c(n2)Nc2ccc(nc2C(=O)NOC)-c2cnn(c2)CCCO1 (racemic) [Example 46] | < 400 | < 400 | < 400 | 400 to 4000 | 
CCOP1(=O)Cc2ccc(c(OC)c2)Nc2ncc(C(F)(F)F)c(n2)Nc2ccc(nc2C(=O)NC)-c2cnn(c2)CC(C)(C)CO1 (racemic) [Example 47] | < 400 | < 400 | < 400 |  | 
CCOP1(=O)Cc2ccc(c(OC)c2)Nc2ncc(C(F)(F)F)c(n2)Nc2ccc(nc2C(=O)NC)-c2cn(nc2OC)CCCO1 (racemic) [Example 48] | < 400 | < 400 | < 400 | 400 to 4000 | 
CCOP1(=O)Cc2ccc(c(OC)c2)Nc2ncc(C(F)(F)F)c(n2)Nc2ccc(nc2C(=O)NC)-c2cn(nc2Cl)CCCO1 (racemic) [Example 49] |  | < 400 | < 400 | 400 to 4000 | < 400
CCOP1(=O)Cc2ccc(c(OC)c2)Nc2ncc(C(F)(F)F)c(n2)Nc2ccc(nc2C(=O)NC)-c2cnn(c2)C(C)(C)CCO1 (racemic) [Example 50] |  | < 400 | < 400 |  | < 400
CCOP1(=O)Cc2ccc(c(OC)c2)Nc2ncc(C(F)(F)F)c(n2)Nc2ccc(nc2C(=O)NC)-c2cnn(c2Cl)CCCO1 (racemic) [Example 51] | < 400 | < 400 | < 400 | 400 to 4000 | 
CCOP1(=O)Cc2ccc(c(OC)c2)Nc2ncc(C(F)(F)F)c(n2)Nc2ccc(nc2C(=O)NC)-c2cn(nc2C#N)CCCO1 (racemic) [Example 52] | < 400 |  | < 400 |  | 
CCOP1(=O)Cc2ccc(c(OC)c2)Nc2ncc(C(F)(F)F)c(n2)Nc2ccc(nc2C(=O)NC)-c2cnn(c2C#N)CCCO1 (racemic) [Example 53] |  |  | > 4000 |  | 400 to 4000
CCOP1(=O)Cc2ccc(c(OC)c2Cl)Nc2ncc(C(F)(F)F)c(n2)Nc2ccc(nc2C(=O)NC)-c2cnn(c2)CCCO1 (racemic) [Example 54] | < 400 | 400 to 4000 | < 400 |  | 
CCOP1(=O)Cc2ccc(c(OC)c2Cl)Nc2ncc(C(F)(F)F)c(n2)Nc2ccc(nc2C(=O)NC)-c2cnn(c2)CC2(COC2)CO1 (racemic) [Example 55] | < 400 | < 400 | < 400 | 400 to 4000 | 
CCOP1(=O)Cc2cc(OC)c(cc2Cl)Nc2ncc(C(F)(F)F)c(n2)Nc2ccc(nc2C(=O)NC)-c2cnn(c2)CCCO1 (racemic) [Example 56] | < 400 | > 4000 | < 400 | 400 to 4000 | 
CCOP1(=O)Cc2cc(OC)c(cc2Cl)Nc2ncc(C(F)(F)F)c(n2)Nc2ccc(nc2C(=O)NC)-c2cnn(c2)CC2(COC2)CO1 (racemic) [Example 57] | < 400 | 400 to 4000 | < 400 |  | 

Source: US9133224B2, “Macrocyclic kinase inhibitors” (OSI Pharmaceuticals, LLC, priority 2010, dated 2015)
